Values quoted from earlier work in patent US20220054467A1, “TREATMENT OF PSORIASIS WITH TOPICAL TAPINAROF-TAZAROTENE COMBINATION COMPOSITIONS” (Sol-Gel Technologies Ltd., priority 2019, published 2022).
Like-named read-outs stand apart in the source and are kept apart here.

What was measured:
[1] = as a single drug; placebo 20.2%
[2] = system: interleukin-6 and interleukin-17A; conditions: mouse models
[3] = system: interleukin-6 and interleukin-17A; conditions: in vitro human skin
[4] = 1% tapinarof arm vs. the 0.5% arm or vehicle

Row | Compound | adverse effects [1] [%] | efficacy (plaque psoriasis; [4]) | onset of action (plaque psoriasis; [4]) | most frequent adverse events (plaque psoriasis; topical cream, clinical studies) | effect on proinflammatory mediators, including interleukin-6 and interleukin-17A [2] | effect on skin barrier function [2] | effect on proinflammatory mediators, including interleukin-6 and interleukin-17A [3] | effect on skin barrier function [3]
1 | C=C1/C(=C\C=C2/CCC[C@]3(C)[C@@H]([C@H](C)/C=C/[C@@H](O)C4CC4)CC[C@@H]23)C[C@@H](O)C[C@@H]1O [calcipotriene] | 19.5 |  |  |  |  |  |  | 
2 | CC(C)c1c(O)cc(/C=C/c2ccccc2)cc1O [Tapinarof, 3,5-dihydroxy-4-isopropyl-trans-stilbene] | 44.5 | higher efficacy | quicker onset of action | folliculitis and contact dermatitis | inhibit specific proinflammatory mediators | enhance skin barrier function | inhibit specific proinflammatory mediators | enhance skin barrier function
